{
  "source": "patent US9174984B2",
  "about": "“Chemical compounds” (GlaxoSmithKline Intellectual Property (No. 2) Limited, priority 2011, dated 2015)",
  "data": [
    {"biological_target": "T1, Human DNMT3b/3L (Homo sapiens, UniProt Q9UBC3)", "T1 construct": "truncated 3b (catalytic domain)", "test": "DNMT inhibition assay (3H-SAM filter-binding) against DNMT3b/3L", "type": "biochemical", "details": "at least one experimental run or average of several runs; Examples 1-114 and 115-120 use different protocols; read-out: IC50 against DNMT 3b/3L", "experimental": "(§1) DNMT Assays Used for Examples 1-114\n(§2) Human DNMT3b/3L was coexpressed using truncated 3b (catalytic domain) and 3L (DNA binding domain) at GSK. Human full-length DNMT1 enzyme purchased from BPS Biosciences. Poly(dIdC) DNA (Sigma) was used at 0.002 mg/mL. Tritiated SAM (Perkin Elmer) was used at 500 nM. DNA, DNMT enzyme, and inhibitors were mixed with assay buffer (20 mM Tris pH8, 5% glycerol, 1 mM EDTA, 100 μg/mL BSA, 1 mM DTT, 50 mM NaCl) and pre-incubated without SAM for 30 min. H3 SAM was then added to initiate the methylation reaction which continues at 37° C. for 1 h. Reaction mixture was then transferred to a filter plate (Millipore Multiscreen HTS DE), then washed with 50 mM H2PO4 and 95% Ethanol. Scintillation counts were measured on the Perkin Elmer Microbeta scintillation counter.\n(§3) DNMT Assays Used for Examples 115-120\n(§4) DNMT enzymes were produced by GlaxoSmithKline. Human DNMT3b/3L was coexpressed using truncated 3b (catalytic domain) and 3L (DNA binding domain). DNMT1 was human, full-length protein. 3H-SAM was purchased from Perkin Elmer. Custon DNA oligonucleotide substrates were purchased from Integrated DNA technologies.\n(§5) 28-mer DNA Oligonucleotide Duplex (for DNMT3b/3L)\n(§6) DNMT enzyme was preincubated with compound for 1 hr at RT, after which SAM and DNA were added to initiate the methylation reaction. The methylation reaction was quenched after 20 min upon the addition of >100 fold excess non-radioactive SAM. The quenched reaction mixture (80%) was transferred to a DEAE filter binding plate (Millipore Multiscreen HTS DE), washed with 3 volumes of 50 mM phosphate buffer and dried. Scintillation cocktail (MicroScint-20) was added to the plate and radioactivity (3H-DNA) was measured using a Perkin Elmer TopCount scintillation counter.\n(§7) Final reagent concentrations (prior to quench) consisted of the following:\n(§8) DNMT3b/3L (10 nM), 200 nM DNA, 200 nM 3H-SAM in 20 mM Tris (pH 8), 1 mM DTT, 1 mM EDTA, 25 mM NaCl, 1 mM CHAPS and 2% DMSO.", "units": {"IC50": "nM"}, "values": [
      {"compound": "Nc1cccc(CNC(=O)NCc2ccnc3[nH]cc(Cl)c23)c1", "note": "[Example 52, 1-(3-aminobenzyl)-3-((3-chloro-1H-pyrrolo[2,3-b]pyridin-4-yl)methyl)urea]", "IC50": 7100},
      {"compound": "O=C(CCBr)Nc1cccc(CNC(=S)NCc2ccnc3[nH]ccc23)c1", "note": "[Example 36, N-(3-((3-((1H-pyrrolo[2,3-b]pyridin-4-yl)methyl)thioureido)methyl)phenyl)-3-bromopropanamide]", "IC50": "≤ 20000"},
      {"compound": "C=CC(=O)Nc1ccc(F)c(CNC(=S)NCc2ccnc3[nH]ccc23)c1", "note": "[Example 74, N-(3-((3-((1H-pyrrolo[2,3-b]pyridin-4-yl)methyl)thioureido)methyl)-4-fluorophenyl)acrylamide]", "IC50": "≤ 10000"},
      {"compound": "C=CC(=O)Nc1cc(CNC(=S)NCc2ccnc3[nH]ccc23)ccc1Cl", "note": "[Example 76, N-(5-((3-((1H-pyrrolo[2,3-b]pyridin-4-yl)methyl)thioureido)methyl)-2-chlorophenyl)acrylamide]", "IC50": "≤ 1000"},
      {"compound": "O=C(C#Cc1ccccc1)Nc1cccc(CNC(=N[N+](=O)[O-])NCc2ccnc3[nH]ccc23)c1", "note": "[Example 24, N-(3-((3-((1H-pyrrolo[2,3-b]pyridin-4-yl)methyl)-2-nitroguanidino)methyl)phenyl)-3-phenylpropiolamide]", "IC50": "≤ 1000"},
      {"compound": "CC#CC(=O)Nc1cc(Cl)ccc1CNC(=S)NCc1ccnc2[nH]ccc12", "note": "[Example 82, N-(2-((3-((1H-pyrrolo[2,3-b]pyridin-4-yl)methyl)thioureido)methyl)-5-chlorophenyl)but-2-ynamide]", "IC50": "≤ 1000"},
      {"compound": "C=CC(=O)Nc1ccc(C(F)(F)F)cc1CNC(=S)NCc1ccnc2[nH]ccc12", "note": "[Example 33, N-(2-((3-((1H-pyrrolo[2,3-b]pyridin-4-yl)methyl)thioureido)methyl)-4-(trifluoromethyl)phenyl)acrylamide]", "IC50": "≤ 20000"},
      {"compound": "C=CC(=O)Nc1ccccc1CNS(=O)(=O)NCc1ccnc2[nH]ccc12", "note": "[Example 39, N-(2-(((N-((1H-pyrrolo[2,3-b]pyridin-4-yl)methyl)sulfamoyl)amino)methyl)phenyl)acrylamide]", "IC50": "≤ 10000"},
      {"compound": "O=C(NCc1ccccc1-c1cscn1)NCc1ccnc2[nH]ccc12", "note": "[Example 120, 1-((1H-pyrrolo[2,3-b]pyridin-4-yl)methyl)-3-(2-(thiazol-4-yl)benzyl)urea]", "IC50": "≤ 1000"},
      {"compound": "O=C(C#Cc1ccccc1)NCCNS(=O)(=O)NCc1ccnc2[nH]ccc12", "note": "[Example 50, N-(2-((N-((1H-pyrrolo[2,3-b]pyridin-4-yl)methyl)sulfamoyl)amino)ethyl)-3-phenylpropiolamide]", "IC50": "≤ 10000"},
      {"compound": "NCC(=O)Nc1cccc(CNC(=S)NCc2ccnc3[nH]ccc23)c1", "note": "[Example 112, N-(3-((3-((1H-Pyrrolo[2,3-b]pyridin-4-yl)methyl)thioureido)methyl)phenyl)-2-aminoacetamide]", "IC50": "≤ 20000"},
      {"compound": "S=C(NCc1ccccc1-c1cocn1)NCc1ccnc2[nH]ccc12", "note": "[Example 115, 1-((1H-pyrrolo[2,3-b]pyridin-4-yl)methyl)-3-(2-(oxazol-4-yl)benzyl)thiourea]", "IC50": "≤ 1000"},
      {"compound": "CC#CC(=O)Nc1cccc(CN/C(=N\\C#N)NCc2ccnc3[nH]ccc23)c1", "note": "[Example 14, (E)-N-(3-((3-((1H-Pyrrolo[2,3-b]pyridin-4-yl)methyl)-2-cyanoguanidino)methyl)phenyl)but-2-ynamide]", "IC50": "≤ 20000"},
      {"compound": "S=C(NCc1ccccc1-c1nccs1)NCc1ccnc2[nH]ccc12", "note": "[Example 111, 1-((1H-Pyrrolo[2,3-b]pyridin-4-yl)methyl)-3-(2-(thiazol-2-yl)benzyl)thiourea]", "IC50": "≤ 10000"},
      {"compound": "CN(C(=O)C#Cc1ccccc1)c1cccc(CNC(=S)NCc2ccnc3[nH]ccc23)c1", "note": "[Example 117, N-(3-((3-((1H-pyrrolo[2,3-b]pyridin-4-yl)methyl)thioureido)methyl)phenyl)-N-methyl-3-phenylpropiolamide]", "IC50": "≤ 10000"},
      {"compound": "O=C(C#Cc1ccccc1)NCCCNS(=O)(=O)NCc1ccnc2[nH]ccc12", "note": "[Example 49, N-(3-((N-((1H-pyrrolo[2,3-b]pyridin-4-yl)methyl)sulfamoyl)amino)propyl)-3-phenylpropiolamide]", "IC50": "≤ 1000"}
    ]},
    {"biological_target": "T1, Human DNMT3b/3L", "test": "DNMT inhibition assay (3H-SAM filter-binding) against DNMT3b/3L", "type": "biochemical", "details": "read-out: IC50 against DNMT 3b/3L", "experimental": "as §1, §2, §3, §4, §5, §6, §7, §8", "units": {"IC50": "nM"}, "values": [
      {"compound": "O=C(C#Cc1ccccc1)Nc1cccc(CNC(=O)NCc2ccnc3[nH]cc(Br)c23)c1", "note": "[Example 63, N-(3-((3-((3-bromo-1H-pyrrolo[2,3-b]pyridin-4-yl)methyl)ureido)methyl)phenyl)-3-phenylpropiolamide]", "IC50": "≤ 1000"},
      {"compound": "O=C(C#Cc1ccccc1)NCCCC(=O)NCc1ccnc2[nH]ccc12", "note": "[Example 18, N-((1H-pyrrolo[2,3-b]pyridin-4-yl)methyl)-4-(3-phenylpropiolamido)butanamide]", "IC50": "≤ 1000"},
      {"compound": "O=C(C#Cc1ccccc1)N1CCCC(CNS(=O)(=O)NCc2ccnc3[nH]ccc23)C1", "note": "(stereo not shown) [Example 48, 1-((1H-pyrrolo[2,3-b]pyridin-4-yl)methyl)-3-((1-(3-phenylpropioloyl)piperidin-3-yl)methyl)sulfuric diamide]", "IC50": "≤ 1000"},
      {"compound": "N#C/N=C(\\NCCNC(=O)C#Cc1ccccc1)NCc1ccnc2[nH]ccc12", "note": "[Example 15, (Z)—N-(2-(3-((1H-Pyrrolo[2,3-b]pyridin-4-yl)methyl)-2-cyanoguanidino)ethyl)-3-phenylpropiolamide]", "IC50": "≤ 10000"},
      {"compound": "CC#CC(=O)Nc1cccc(CNC(=O)NCc2ccnc3[nH]ccc23)c1", "note": "[Example 3, N-(3-((3-((1H-Pyrrolo[2,3-b]pyridin-4-yl)methyl)ureido)methyl)phenyl)but-2-ynamide]", "IC50": "≤ 1000"},
      {"compound": "O=C(C#Cc1ccccc1)Nc1cccc(CNC(=O)NCc2ccnc3[nH]cc(Cl)c23)c1", "note": "[Example 53, N-(3-((3-((3-chloro-1H-pyrrolo[2,3-b]pyridin-4-yl)methyl)ureido)methyl)phenyl)-3-phenylpropiolamide]", "IC50": "≤ 1000"},
      {"compound": "O=C(C#Cc1ccccc1)NCc1ccccc1CNC(=S)NCc1ccnc2[nH]ccc12", "note": "[Example 56, N-(2-((3-((1H-pyrrolo[2,3-b]pyridin-4-yl)methyl)thioureido)methyl)benzyl)-3-phenylpropiolamide]", "IC50": "≤ 1000"},
      {"compound": "COc1ccc(C#CC(=O)NCCNC(=S)NCc2ccnc3[nH]ccc23)cc1", "note": "[Example 11, N-(2-(3-((1H-Pyrrolo[2,3-b]pyridin-4-yl)methyl)thioureido)ethyl)-3-(4-methoxyphenyl)propiolamide]", "IC50": "≤ 10000"},
      {"compound": "O=C(C#Cc1ccccc1)NCCCNC(=O)NCc1ccnc2[nH]ccc12", "note": "[Example 17, N-(3-(3-((1H-pyrrolo[2,3-b]pyridin-4-yl)methyl)ureido)propyl)-3-phenylpropiolamide]", "IC50": "≤ 10000"},
      {"compound": "O=C(NCc1ccnc2[nH]cc(Cl)c12)NC1CCN(C(=O)C#Cc2ccccc2)C1", "note": "(stereo not shown) [Example 64, 1-((3-chloro-1H-pyrrolo[2,3-b]pyridin-4-yl)methyl)-3-(1-(3-phenylpropioloyl)pyrrolidin-3-yl)urea]", "IC50": "≤ 10000"},
      {"compound": "O=C(NCc1ccnc2[nH]ccc12)NC1CN(C(=O)C#Cc2ccccc2)C1", "note": "[Example 57, 1-((1H-pyrrolo[2,3-b]pyridin-4-yl)methyl)-3-(1-(3-phenylpropioloyl)azetidin-3-yl)urea]", "IC50": "≤ 1000"},
      {"compound": "O=C(C#Cc1ccccc1)Nc1cccc(CNC(=O)NCc2ccnc3[nH]cc(F)c23)c1", "note": "[Example 62, N-(3-((3-((3-fluoro-1H-pyrrolo[2,3-b]pyridin-4-yl)methyl)ureido)methyl)phenyl)-3-phenylpropiolamide]", "IC50": "≤ 1000"},
      {"compound": "CN(CCNC(=O)NCc1ccnc2[nH]ccc12)C(=O)C#Cc1ccccc1", "note": "[Example 20, N-(2-(3-((1H-pyrrolo[2,3-b]pyridin-4-yl)methyl)ureido)ethyl)-N-methyl-3-phenylpropiolamide]", "IC50": "≤ 10000"},
      {"compound": "O=C(C#Cc1ccccc1)NCc1ccccc1CNS(=O)(=O)NCc1ccnc2[nH]ccc12", "note": "[Example 55, N-(2-(((N-((1H-pyrrolo[2,3-b]pyridin-4-yl)methyl)sulfamoyl)amino)methyl)benzyl)-3-phenylpropiolamide]", "IC50": "≤ 1000"},
      {"compound": "NCc1cccc(NC(=S)NCc2ccnc3[nH]ccc23)c1", "note": "[Example 9, 1-((1H-Pyrrolo[2,3-b]pyridin-4-yl)methyl)-3-(3-(aminomethyl)phenyl)thiourea]", "IC50": "≤ 20000"},
      {"compound": "O=C(C#Cc1ccccc1)Nc1cccc(CNC(=O)NCc2ccnc3[nH]ccc23)c1", "note": "[Example 1, N-(3-((3-((1H-Pyrrolo[2,3-b]pyridin-4-yl)methyl)ureido)methyl)phenyl)-3-phenylpropiolamide]", "IC50": "≤ 1000"},
      {"compound": "O=C(C#Cc1ccccc1)Nc1cccc(CCC(=O)NCc2ccnc3[nH]ccc23)c1", "note": "[Example 19, N-(3-(3-(((1H-pyrrolo[2,3-b]pyridin-4-yl)methyl)amino)-3-oxopropyl)phenyl)-3-phenylpropiolamide]", "IC50": "≤ 1000"},
      {"compound": "O=C(NCc1ccnc2[nH]ccc12)NC1CCN(C(=O)C#Cc2ccccc2)C1", "note": "(stereo not shown) [Example 58, 1-((1H-pyrrolo[2,3-b]pyridin-4-yl)methyl)-3-(1-(3-phenylpropioloyl)pyrrolidin-3-yl)urea]", "IC50": "≤ 1000"}
    ]}
  ]
}
